# According to patent US8524860B2, “Peptides with capacity to bind to scurfin and applications” (Proyecto de Biomedicina CIMA, S.L., priority 2007, dated 2013):
# No end group written: not given here.
# Legend:
# [1] = target: T1, scurfin (Homo sapiens, UniProt Q9BZS1); assay: Surface plasmon resonance (SPR) analysis of peptide binding to immobilized scurfin; conditions: peptide 10 μM, scurfin immobilized on CM5 chip, compared with irrelevant control peptide (SEQ ID NO: 6)
# T1 construct: GST (glutathione-S-transferase); made in house; host or cells: Escherichia coli BL21
# T1 sequence (Q9BZS1 1-431): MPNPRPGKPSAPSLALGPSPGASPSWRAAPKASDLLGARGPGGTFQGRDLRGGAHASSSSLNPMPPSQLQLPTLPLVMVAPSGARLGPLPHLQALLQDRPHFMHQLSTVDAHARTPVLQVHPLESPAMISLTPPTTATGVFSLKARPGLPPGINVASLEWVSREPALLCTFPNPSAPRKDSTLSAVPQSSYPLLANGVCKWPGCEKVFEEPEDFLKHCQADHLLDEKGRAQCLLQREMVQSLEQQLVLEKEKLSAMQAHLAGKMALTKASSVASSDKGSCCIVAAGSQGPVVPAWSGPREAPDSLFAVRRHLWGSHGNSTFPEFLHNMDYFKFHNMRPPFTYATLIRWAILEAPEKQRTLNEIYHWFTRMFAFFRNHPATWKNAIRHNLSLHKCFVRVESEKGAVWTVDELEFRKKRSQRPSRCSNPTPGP
# Description: The capacity of peptide P60 (SEQ ID NO: 1) to bind to scurfin was verified by means of the biomolecular interaction surface plasmon resonance (SPR) using the Biosensor BIAcore X (BIAcore, AB, Uppsala, Sweden). Scurfin, produced in E. coli and purified by affinity using GSTrap columns (Amersham, Pharmacia), was covalently immobilized on the surface of the flow cell 2 (FC2) of a CM5 chip (Sensor Chip CM Ref 116Br-1000-14, BIAcore, General Electrics), as described in De Crescenzo et al. (JBC 2001, Vol 276; 29632-29643). Flow cell 1 (FC1), on the surface of which scurfin is not immobilized, was used as a reference reflow cell. The solutions of each peptide (10 μM) were injected three times in a 10 mM Hepes buffer, 150 mM NaCl, pH 7.4 at a flow of 30 μl/min. The binding curves were processed by means of subtracting the response in FC1 from that obtained in FC2. The response in equilibrium was compared between peptide P60 (SEQ ID NO: 1) and an irrelevant control peptide of the same size (length), specifically, the peptide the amino acid sequence of which is shown in SEQ ID NO: 6, corresponding to amino acids 123-137 of the human CD81 receptor. Each response was multiplied by a mass correction factor: MW(P60)/MW(P), wherein MW(P60) is the molecular weight of peptide P60 (SEQ ID NO: 1) and MW(P) is that of the control peptide.
# For the purpose of evaluating the importance of the amino acids placed at the amino-terminal and carboxyl-terminal ends of peptide P60 (SEQ ID NO: 1), truncated forms of said peptide P60 (SEQ ID NO: 1) were chemically synthesized as has been mentioned above, and the capacity of said truncated forms to bind to scurfin was assayed by means of SPR, according to the protocol previously described in section 1.3.
# Likewise, the capacity of said peptides (SEQ ID NO: 2, SEQ ID NO: 3 and SEQ ID NO: 4) to bind to scurfin was assayed by means of SPR in the previously mentioned conditions.
# [2] = tested on: CT26 colon cancer line; assay: CT26 colon cancer tumor model, antitumor vaccination with peptide AH1; assay type: in vivo, BALB/c mice; conditions: for protection from tumor: n=11
# Description: The tumor model used for this assay has been a model based on the CT26 colon cancer line, described in a previous work of the laboratory of the inventors (Casares et al, 2001. Eur J Immunol 31:1780-9; Casares et al., 2003. J Immunol 171:5931-9), since the inventors had previously shown that, in this model, Treg lymphocytes have an immunosuppressive effect favoring tumor growth (Casares et al., 2003, mentioned above).
# The synthetic peptide (SEQ ID NO: 8) was used as a vaccine antigen, which peptide contains a cytotoxic T determinant for the CT26 line (Huang, A. Y. et al, Proc Natl Acad Sci USA, 1996. 93:9730-9735) and the immunization of which delays the tumor growth to a certain extent, without eliminating it due to the presence of Treg lymphocytes (Casares et al., 2003, mentioned above).
# Briefly, groups of 6 six-week old BALB/c mice (Charles River) were immunized with peptide AH1 (SEQ ID NO: 8) as described in Casares et al., 2001, mentioned above, in the presence or absence of peptide P60 (SEQ ID NO: 1). Ten days after the immunization, the mice were subcutaneously injected with 5×10^5 CT26 cells, and the tumor evolution was measured.
# [3] = tested on: inhibition of the activation of transcription factor NF-κB by scurfin; assay: NF-κB luciferase reporter in 293 cells transfected with pcDNA-Foxp3; assay type: cell-based; conditions: 100 μM, 24 hours
# Description: It has been described that the presence of scurfin can inhibit the activation of the transcription factor NF-kB in 293 cells (Betelli et al, Proc Natl Acad Sci USA. 2005 102:5138-43). Based on this work, the effect of the addition of peptide P60 (SEQ ID NO: 1) to a culture of 293 cells transfected with a plasmid expressing the foxp3 gene, kindly provided by Dr Oukka and previously described (Betelli et al, Proc Natl Acad Sci USA. 2005 102:5138-43) and to a culture of 293 cells transfected with a control plasmid together with a plasmid expressing luciferase under a promoter inducible by NF-κB (Ref 631904, pNF-kB-Luc, Clontech) has been studied. The 293 cells were transfected by means of using lipofectamine with plasmid pNF-kB-Luc expressing luciferase under a promotor inducible by transcription factor NF-kB, in the presence or absence of plasmid pcDNA, pcDNA-Foxp3 and peptide P60 (SEQ ID NO: 1) (100 μM). After 24 hours of culture, the cells were harvested and the luciferase activity in the cell extracts was measured by means of using a suitable kit (Promega, Maddison, USA) and the luminometer (Orion Microplate luminometer, Berthold detection systems, Germany).
# [4] = tested on: murine Treg lymphocytes; assay: Activation of BALB/c mouse splenocytes with anti-CD3 antibodies with murine Treg lymphocytes, IFN-γ; assay type: cell-based; conditions: 100 μM
# Experimental: Firstly, assays of activation of BALB/c mouse splenocytes (Charles River) in the presence of anti-CD3 antibodies (Ref 553057, BD Biosciences) were carried out.
# [5] = tested on: human Treg lymphocytes; assay: IFN-γ production by human CD4 effector T lymphocytes stimulated with anti-CD3/CD28 microspheres with human Treg lymphocytes; assay type: cell-based; conditions: 100 μM, anti-CD3/CD28 stimulus, 48 hours, ELISA
# Experimental: This assay is based on the measurement of the production of IFN-γ in a culture of 10^5 human CD4 effector T lymphocytes cultured with microspheres containing anti-CD3 and anti-CD28 antibodies adhered to their surface (Dynabeads® CD3/CD28; Ref 111.31, Dynal), in the presence or absence of 2×10^4 human Treg lymphocytes (purified as indicated above). This assay was carried out in the presence or absence of peptide P60 (SEQ ID NO: 1) to assess its inhibitory effect of Treg lymphocytes. After 48 hours of culture, the presence of IFN-γ in the culture supernatants was measured by means of a commercial ELISA (Ref 555138, Pharmingen).
# [6] = tested on: murine Treg lymphocytes; assay: Co-culture of OT-1 transgenic mouse effector lymphocytes with dendritic cells, SIINFEKL antigen and Treg lymphocytes, IFN-γ ELISA; assay type: cell-based; conditions: 100 μM, SIINFEKL 10 μg/ml, OT-1 effector lymphocytes
# Experimental: Thirdly, the effect of peptide P60 (SEQ ID NO: 1) was measured in an assay based on co-culturing splenocytes from OT-1 transgenic mice (the T lymphocytes of which have a specific T cell receptor for the peptide SIINFEKL (SEQ ID NO: 7) of ovalbumin, which were kindly provided by Dr Melero, CIMA Pamplona) with Treg lymphocytes in the presence of antigen (SEQ ID NO: 7) and in the presence or absence of Treg lymphocytes. […] The effector lymphocytes isolated from OT-1 transgenic mice (10^5 cells/well) were co-cultured with dendritic cells from C57BL/6 mice and the peptide SIINFEKL (SEQ ID NO: 7) (10 μg/ml), in the presence or absence of 2×10^4 BALB/cregulatory T cells and in the presence or absence of peptide P60 (SEQ ID NO: 1) (100 μM).
# [7] = tested on: murine Treg lymphocytes; assay: Murine MLR (BALB/c effector lymphocytes with C57BL/6 dendritic cells) with BALB/c Treg lymphocytes, tritiated thymidine incorporation; assay type: cell-based, mouse; conditions: 100 μM
# Experimental: Secondly, mixed lymphocyte reaction (MLR) assays were carried out. The effector lymphocytes isolated from BALB/c mice (10^5 cells/well) were co-cultured with purified dendritic cells from C57BL/6 mice (Charles River), in the presence or absence of BALB/c Treg lymphocytes and in the presence or absence of peptide P60 (SEQ ID NO: 1) (100 μM). The measurement of the cell proliferation was carreid out by means of a conventional tritiated thymidine incorporation assay as has been previously described.
# [8] = tested on: Karpas 299 human cell line; assay: Mixed lymphocyte reaction (MLR) of PBMCs from 2 donors with Karpas 299 cells, IFN-γ ELISA; assay type: cell-based
# Experimental: After verifying and confirming its profile, in vitro assays were carried out using the Karpas 299 human cell line (ACC-31, DSMZ, Germany), derived from a human lymphoma with a regulatory T cell [Treg lymphocytes] profile (Wolke et al Int J Mol. Med. 2006 February; 17(2):275-8), the need to isolate CD4+CD25+ cells is thus prevented.
# To evaluate the effect of peptide P60 (SEQ ID NO: 1) on the immunosuppressive activity of the Karpas 299 cell line, a “mixed lymphocyte reaction” (MLR) assay was carried out using peripheral blood mononuclear cells (PBMCs) from 2 donors in the presence or absence of the Karpas 299 cell line. This assay (MLR) is based on co-culturing lymphocytes of a different origin, with different histocompatibilities, which will recognize one another as foreign. This reaction makes lymphocytes proliferate, secreting cytokines. For this assay, 100,000 cells of each donor (positive MLR control) were cultured in a 96-well plate, alone or in the presence of 10,000 cells of the Karpas 299 cell line.
# After 48 hours, the supernatants were extracted to measure interferon-gamma (IFN-γ) by means of a commercial ELISA (Ref 555138, Pharmingen, San Diego, Calif., United States). […] In this assay of inhibition of the MLR due to the presence of the Karpas 299 cell line, the capacity of peptide P60 (SEQ ID NO: 1) to restore the production of IFN-γ due to the MLR was analyzed.
# [9] = tested on: human Treg lymphocytes; assay: MLR of PBMCs from 2 donors with human Treg lymphocytes, tritiated thymidine incorporation; assay type: cell-based; conditions: 100 μM, 3 days of culture
# Experimental: To carry out the assay based on a mixed lymphocyte reaction (MLR), such as that shown in Example 2, peripheral blood mononuclear cells (PBMCs) from 2 donors were mixed together with CD4+CD25+ Treg cells (Treg lymphocytes) purified from one of them, by means of using a commercial kit (Ref 130091072, Miltenyi Biotec, Bergisch Gladbach, Germany) following the instructions of the manufacturer. After the purification, the cells were analyzed by flow cytometry, a purity of approximately 90% being obtained in all the assays. This MLR assay was carried out incubating 10^5 PBMC cells from each donor and 2×10^4 Treg lymphocytes in the presence or absence of peptide P60 (SEQ ID NO: 1), for the purpose of assaying its capacity to block the inhibitory effect of human Treg lymphocytes. After 3 days of culture, 0.5 μCi/well of tritiated thymidine (Amersham, Pharmacia) and after 16 hours, the plates were harvested using a harvester (Filtermate 96 harvester; Packard Instrument, Meriden, Conn.) and the radioactivity incorporated to the cell DNA was counted (as a measurement of the cell proliferation) by means of a scintillation counter (Topcount; Packard Instrument).
substance,measurement,setting,value
"RDFQSFRKMWPFF [T(1-13), truncated form of P60, amino acids 1-13 of P60]",capacity to bind to scurfin (SPR signal),[1],does not destroy the capacity of the peptide to bind to scurfin
"T(2-15): truncated form of P60, amino acids 2-15 of P60 (DFQSFRKMWPFFAM)",capacity to bind to scurfin (SPR signal),[1],inhibits the capacity of the peptide to bind to scurfin
"AH1: synthetic peptide used as vaccine antigen, contains a cytotoxic T determinant for the CT26 line (SPSYVYHQF) [reference compound]",protection from tumor,[2]; mice immunized with AH1 alone,0%
RDFQSFRKMWPFFAM [P60],expression of luciferase (NF-κB reporter) inhibited by scurfin,[3],restores the expression of luciferase
same,inhibition of the immunosuppressive effect of Treg lymphocytes on production of IFN-γ in response to anti-CD3,[4],capable of inhibiting the immunosuppressive effect of Treg lymphocytes on the production of IFN-γ
same,capacity to bind to scurfin (SPR signal),[1],positive signal
same,restoration of the production of IFN-γ inhibited by human Treg lymphocytes,[5],partly restoring the production of IFN-γ
same,inhibition of the immunosuppressive effect of Treg lymphocytes on production of IFN-γ by antigen-specific effector cells,[6],capable of inhibiting the immunosuppressive effect of Treg lymphocytes on the production of IFN-γ
same,inhibition of the immunosuppressive effect of Treg lymphocytes on proliferation of effector cells in response to an MLR,[7],capable of inhibiting the immunosuppressive effect of Treg lymphocytes on the proliferation of effector cells
same,restoration of the production of IFN-γ due to the MLR inhibited by Karpas 299 cells,"[8]; 100 μM, 48 hours, ELISA",capable of partly recovering the production of IFN-γ
same,inhibitory activity on the immunosuppressive action of Treg cells among the 25 peptides selected,[8]; several in vitro assays (Example 2),highest inhibitory activity
same,protection from tumor,"[2]; mice immunized with peptide AH1 and treated with P60 50 nm/mouse i.p. days 0, 2, 4, 6, 8, 10",82%
same,mice that developed a palpable tumor,[2]; of the 11 mice immunized with peptide AH1 and treated with P60,2
same,protection from tumor,"[2]; peptide P60 alone, non-immunized mice",10%
same,restoration of the MLR (cell proliferation) inhibited by human Treg lymphocytes,[9],capable of partly restoring the MLR
"RDFQSFRKMWPFFA [T(1-14), truncated form of P60, amino acids 1-14 of P60]",capacity to bind to scurfin (SPR signal),[1],does not destroy the capacity of the peptide to bind to scurfin
